Calls of active or inactive are those of the source.
Experiments:
[1] = cells; type: functional, cell-based
[2] = molecular target: T1, Trace amine-associated receptor 1 (Homo sapiens, UniProt Q96RJ0); experiment: Counterscreen for agonists of the human trace amine associated receptor 1 (hTAAR1): Fluorescence-based cell-based high throughput dose response assay to identify hTAAR1 agonist that also desensitize TAAR1 receptor response.; type: functional
T1 sequence (Q96RJ0 whole entry): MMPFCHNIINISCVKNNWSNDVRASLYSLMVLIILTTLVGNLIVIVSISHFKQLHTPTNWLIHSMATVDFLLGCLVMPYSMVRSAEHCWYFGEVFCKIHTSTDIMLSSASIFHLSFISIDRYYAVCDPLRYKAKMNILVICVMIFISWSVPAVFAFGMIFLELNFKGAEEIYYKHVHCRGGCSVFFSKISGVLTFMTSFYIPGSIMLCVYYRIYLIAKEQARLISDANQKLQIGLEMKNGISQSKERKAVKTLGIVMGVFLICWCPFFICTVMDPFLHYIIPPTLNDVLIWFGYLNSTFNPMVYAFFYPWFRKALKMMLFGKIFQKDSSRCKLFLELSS

[3] = cells; type: functional, cell-based; remark: listed apart in the source
[4] = molecular target: T1, Trace amine-associated receptor 1; experiment: Fluorescence-based cell-based high throughput dose response assay to identify agonists of the human trace amine associated receptor 1 (TAAR1).; type: functional
[5] = molecular target: T2, Methionyl-tRNA synthetase, putative (Trypanosoma brucei brucei, UniProt Q38C91); type: functional, Trypanosoma brucei brucei strain 927/4 GUTat10.1
T2 sequence (Q38C91 whole entry): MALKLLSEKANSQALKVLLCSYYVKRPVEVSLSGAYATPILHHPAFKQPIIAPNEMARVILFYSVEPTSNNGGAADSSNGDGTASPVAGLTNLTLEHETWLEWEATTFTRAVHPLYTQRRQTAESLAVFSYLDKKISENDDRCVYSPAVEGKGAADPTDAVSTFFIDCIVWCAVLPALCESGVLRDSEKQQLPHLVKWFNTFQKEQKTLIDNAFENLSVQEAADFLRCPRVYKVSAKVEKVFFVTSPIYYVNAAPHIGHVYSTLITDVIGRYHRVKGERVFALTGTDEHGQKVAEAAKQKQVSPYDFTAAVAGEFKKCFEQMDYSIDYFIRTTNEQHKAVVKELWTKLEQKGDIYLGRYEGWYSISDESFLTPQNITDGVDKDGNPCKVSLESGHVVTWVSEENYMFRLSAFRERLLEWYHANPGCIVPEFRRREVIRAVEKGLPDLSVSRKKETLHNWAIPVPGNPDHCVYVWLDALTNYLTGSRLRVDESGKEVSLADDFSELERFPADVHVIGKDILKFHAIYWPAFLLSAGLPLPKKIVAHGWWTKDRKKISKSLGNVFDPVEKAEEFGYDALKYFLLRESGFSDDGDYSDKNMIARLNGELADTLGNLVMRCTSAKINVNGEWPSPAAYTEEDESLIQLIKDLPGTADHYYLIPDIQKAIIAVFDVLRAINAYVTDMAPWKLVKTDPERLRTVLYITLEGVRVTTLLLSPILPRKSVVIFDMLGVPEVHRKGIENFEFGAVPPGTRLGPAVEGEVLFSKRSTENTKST

[6] = Late stage counterscreen for inhibitors of Trypanosoma brucei methionyl tRNA synthetase (MetRS): Luminescence-based cell-based high throughput dose response assay to identify compounds that are cytotoxic to Jurkat human T lymphocyte cells.; type: functional
[7] = Counterscreen for inhibitors of Trypanosoma brucei methionyl tRNA synthetase (MetRS): Luminescence-based cell-based high throughput dose response assay to identify compounds that are cytotoxic to Jurkat human T lymphocyte cells.; type: functional
[8] = molecular target: T2, Methionyl-tRNA synthetase, putative; type: functional, Trypanosoma brucei brucei strain 927/4 GUTat10.1; remark: listed apart in the source
[9] = OVCAR8 cell viability loss – plate reader, dry powder samples, PAX8 project, dose response (AID 743197); type: functional, cell-based; settings: OVCAR-8
[10] = IGROV1 cell killing – plate reader, dry powder samples, PAX8 inhibitor project, dose response (AID 743043); type: functional, cell-based; settings: IGROV-1
[11] = general cell-killing toxicity readout – plate reader, dry powder samples, cytotoxicity control for PAX8 inhibitor project, dose response (AID 743021); type: functional, cell-based
[12] = OVCAR-3 cell viability loss – plate reader, dry powder samples, PAX8 inhibitor project, dose response (AID 743044); type: functional, cell-based
[13] = molecular target: Paired box protein Pax-8 (Homo sapiens, UniProt Q06710); experiment: PAX8 transcriptional activity inhibition in RMG-I – RMG-I cells, luciferase, cherry-pick, dose response (AID 687027); type: functional, cell-based;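 note: luciferase reporter driven by Pax8 target thyroperoxidase promoter measured by SteadyGlo luminescence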
Chain of Paired box protein Pax-8 (Q06710 whole entry): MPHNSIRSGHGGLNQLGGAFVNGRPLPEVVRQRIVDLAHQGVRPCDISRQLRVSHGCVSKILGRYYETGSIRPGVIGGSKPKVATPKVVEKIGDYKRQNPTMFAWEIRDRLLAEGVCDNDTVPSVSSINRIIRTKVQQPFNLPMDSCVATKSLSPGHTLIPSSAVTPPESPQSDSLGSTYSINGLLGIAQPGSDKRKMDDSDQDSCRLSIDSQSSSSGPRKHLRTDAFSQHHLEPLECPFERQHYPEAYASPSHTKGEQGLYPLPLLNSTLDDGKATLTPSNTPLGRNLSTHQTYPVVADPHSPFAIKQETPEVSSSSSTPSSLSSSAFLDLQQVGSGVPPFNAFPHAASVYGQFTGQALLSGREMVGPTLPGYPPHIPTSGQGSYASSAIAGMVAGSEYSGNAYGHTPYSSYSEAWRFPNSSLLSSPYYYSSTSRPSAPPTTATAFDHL

[14] = Luminescence Cell-Based Dose Response HTS to Identify Activators of Luciferase Translation or Activity in H4 […] Cells. [Related pubchem assays: 1829 (Project Summary), 1814 (Primary HTS)]; type: functional
[15] = cells; settings: HEK293
[16] = Luminescence Cell-Based Dose Confirmation HTS to Identify Activators of 5'UTR Stem-Loop Driven Alpha-Synuclein mRNA Translation in H4 Neuroglioblastoma Cells. [Related pubchem assays: 1829 (Project Summary), 1814 (Primary HTS)]; type: functional
[17] = test system: H4; experiment: Luminescence Cell-Based Dose Response HTS to Identify Activators of 5'UTR Stem-Loop Driven Prion Protein mRNA Translation in H4 Neuroglioblastoma Cells. [Related pubchem assays: 1829 (Project Summary), 1814 (Primary HTS)]; type: functional; settings: Homo sapiens
[18] = cells; settings: A549
[19] = T. cruzi growth inhibition in host cells, dose response, cell-based, plate reader, dry powder, set 2 (AID 652275); type: functional
[20] = toxicity to human hepatoma HepG2 cells – cell-based, cherry-picked samples, cytotoxicity control, dose response (AID 1159577); type: functional
[21] = P. falciparum Dd2 growth inhibitors, dose response, SYBR Green, cherry-picked samples (AID 1159567); type: functional, cell-based
[22] = Dd2 malaria parasite growth inhibition potency – SYBR Green, dry powder samples, dose response (AID 1159566); type: functional, cell-based;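 note: potency for growth inhibition with lower SYBR green DNA signal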
[23] = growth inhibition of PfATP4-mutant resistant parasites – NITD609-resistant line, SYBR Green, dry powder, dose response (AID 1159571); type: functional, cell-based;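 note: parasites synchronized at ring stage by sorbitol before testing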
[24] = toxicity to human HepG2 hepatoma cells – cell-based, plate reader, dry powder samples, cytotoxicity control, dose response (AID 1159569); type: functional;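 note: inhibitor potency with signal falling toward the positive control level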
[25] = growth inhibition of yeast DHODH-expressing 3D7 parasites – SYBR Green, dry powder samples, dose response (AID 1159570); type: functional, cell-based;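 note: parasite growth measured after 72 hours of compound exposure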
[26] = Dd2 parasite growth inhibition in erythrocytes – SYBR Green, dry powder samples, set 9, dose response (AID 1159568); type: functional, cell-based
[27] = molecular target: Eukaryotic translation initiation factor 4E (Mus musculus, UniProt P63073); experiment: blockers of eIF4G binding by eIF4E – biochemical, TR-FRET, dose response (AID 855); type: functional;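 note: potency for disrupting eIF4E binding to eIF4GI seen as loss of FRET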
Chain of Eukaryotic translation initiation factor 4E (P63073 whole entry): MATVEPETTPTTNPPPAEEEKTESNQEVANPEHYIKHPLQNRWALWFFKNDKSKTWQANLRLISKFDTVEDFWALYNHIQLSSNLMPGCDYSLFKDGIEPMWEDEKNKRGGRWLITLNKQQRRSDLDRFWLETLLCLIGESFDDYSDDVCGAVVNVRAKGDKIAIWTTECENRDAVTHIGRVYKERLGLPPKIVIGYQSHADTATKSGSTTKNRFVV

[28] = molecular target: T3, SUMO-activating enzyme (Homo sapiens, UniProt Q9UBT2); experiment: blockers of SAE1/SAE2–UBC9 SUMO transfer – biochemical, HTRF, uHTS, primary screen (AID 2006); type: protein-complex assay
T3 sequence (Q9UBE0 whole entry): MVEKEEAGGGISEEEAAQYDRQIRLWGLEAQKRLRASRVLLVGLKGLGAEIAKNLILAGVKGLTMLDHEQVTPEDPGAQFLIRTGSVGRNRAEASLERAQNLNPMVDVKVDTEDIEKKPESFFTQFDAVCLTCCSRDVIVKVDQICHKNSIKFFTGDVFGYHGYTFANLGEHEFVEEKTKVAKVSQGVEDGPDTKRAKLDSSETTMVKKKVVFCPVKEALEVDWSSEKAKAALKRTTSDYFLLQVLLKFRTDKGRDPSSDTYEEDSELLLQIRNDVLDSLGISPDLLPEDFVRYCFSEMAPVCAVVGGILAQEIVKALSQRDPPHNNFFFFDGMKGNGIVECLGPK
T3 sequence (Q9UBT2 whole entry): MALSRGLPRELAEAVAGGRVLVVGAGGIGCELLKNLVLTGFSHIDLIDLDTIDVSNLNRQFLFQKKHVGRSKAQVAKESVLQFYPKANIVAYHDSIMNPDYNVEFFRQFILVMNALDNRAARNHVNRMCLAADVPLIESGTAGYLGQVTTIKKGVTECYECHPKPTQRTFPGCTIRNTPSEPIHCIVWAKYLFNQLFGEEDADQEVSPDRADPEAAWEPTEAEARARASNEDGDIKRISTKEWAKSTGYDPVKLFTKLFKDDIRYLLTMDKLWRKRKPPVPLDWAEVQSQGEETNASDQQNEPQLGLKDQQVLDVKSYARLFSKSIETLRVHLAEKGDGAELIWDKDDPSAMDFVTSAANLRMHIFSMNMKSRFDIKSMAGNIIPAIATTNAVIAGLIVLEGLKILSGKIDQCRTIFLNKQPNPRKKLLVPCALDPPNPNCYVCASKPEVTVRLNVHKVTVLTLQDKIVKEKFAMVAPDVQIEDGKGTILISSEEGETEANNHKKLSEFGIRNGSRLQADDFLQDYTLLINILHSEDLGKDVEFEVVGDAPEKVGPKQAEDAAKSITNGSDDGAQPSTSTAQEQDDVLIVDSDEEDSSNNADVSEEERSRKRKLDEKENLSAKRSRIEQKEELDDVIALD

[29] = molecular target: T3, SUMO-activating enzyme; experiment: blockers of UBC9-mediated SUMO conjugation – biochemical, AlphaScreen, SUMOylation inhibitor project, confirmation (AID 2018); type: functional
[30] = molecular target: Bifunctional protein GlmU (Mycobacterium tuberculosis, UniProt P9WMN3); experiment: Inhibitors of Mycobacterial Glucosamine-1-phosphate acetyl transferase (GlmU). Secondary screen.; set-up: species or system Mycobacterium tuberculosis H37Rv
Chain of Bifunctional protein GlmU (P9WMN3 whole entry): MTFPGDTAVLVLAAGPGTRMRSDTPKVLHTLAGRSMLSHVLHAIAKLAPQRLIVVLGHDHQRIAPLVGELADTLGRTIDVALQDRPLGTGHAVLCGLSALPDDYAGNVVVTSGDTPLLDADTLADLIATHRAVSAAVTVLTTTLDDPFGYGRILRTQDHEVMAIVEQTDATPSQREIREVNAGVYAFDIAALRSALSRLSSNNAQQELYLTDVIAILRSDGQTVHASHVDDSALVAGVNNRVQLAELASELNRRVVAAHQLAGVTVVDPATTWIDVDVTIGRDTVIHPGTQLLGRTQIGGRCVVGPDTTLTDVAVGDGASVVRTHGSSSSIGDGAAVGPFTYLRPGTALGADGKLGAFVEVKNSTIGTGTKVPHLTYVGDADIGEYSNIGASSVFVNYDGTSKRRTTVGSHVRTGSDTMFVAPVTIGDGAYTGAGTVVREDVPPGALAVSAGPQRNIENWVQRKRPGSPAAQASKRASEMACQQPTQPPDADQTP

## Cc1cc(O)nc(Nc2cccc(F)c2)n1
[1]
  EC50: > 29.9 µM (inactive)
[2]
  IC50: > 29.9 µM (inactive)
[3]
  IC50: > 29.9 µM (inactive)
[4]
  EC50: 8.54 µM (active)

## CCCCCCCCCC1NC(C(=O)O)Cc2c1[nH]c1ccccc21 (stereo not given)
[5]
  IC50: 1.96 µM (active)
[6]
  IC50: > 83.3 µM (inactive)
[7]
  IC50: 83.3 µM (inactive)
[8]
  IC50: 3.75 µM (active)

## C[C@H](CO)N1C[C@H](C)[C@H](CN(C)Cc2ccc(C(F)(F)F)cc2)OCCCC[C@H](C)Oc2ccc(NS(=O)(=O)c3ccccc3)cc2C1=O
[9]
  AC50: 48.9 µM (active)
[10]
  AC50: 55.8 µM (active)
[11]
  AC50: 55.7 µM (active)
[12]
  AC50: 45 µM (active)
[13]
  AC50: 9.01 µM (active)

## C[C@@H]1CN([C@@H](C)CO)C(=O)Cc2cc(NC(=O)Nc3ccc4c(c3)OCO4)ccc2O[C@H]1CN(C)CC1CCCCC1
[10]
  AC50: 58.1 µM (active)
[12]
  AC50: 37 µM (active)
[13]
  AC50: 9.15 µM (active)

## COC(=O)c1cc(=O)n(Cc2ccc3c(c2)OCO3)/c(=N/c2ccc(F)c(Cl)c2)s1
[14]
  EC50: > 120 µM (not active)
[15]
  AC50: 20 µM (active)
[16]
  EC50: 10.4 µM (active)
[17]
  EC50: > 120 µM (not active)
[18]
  AC50: 23.3 µM (active)

## CN(C)C(=O)c1ccc(-c2ccc([C@H]3[C@H](CO)N4CCCCN(Cc5cncnc5)C[C@@H]34)cc2)cc1
[19]
  AC50: 0.472 µM (active)

## OC[C@@H]1[C@@H](c2ccccc2)C2(CN(Cc3ccc4c(c3)OCO4)C2)N1Cc1ccccc1
[20]
  AC50: > 39 µM (inactive)
[21]
  AC50: 0.619 µM (active)
[22]
  AC50: 0.444 µM (active)
[23]
  AC50: 0.616 µM (active)
[24]
  AC50: 17.9 µM (active)
[25]
  AC50: 0.634 µM (active)

## C[C@H]1CN([C@@H](C)CO)C(=O)c2cccc(NC(=O)c3ccc(-c4nccs4)cc3)c2O[C@H]1CN(C)C(=O)Nc1ccc(C(F)(F)F)cc1
[26]
  AC50: 8.06 µM (active)

## C[C@H](CO)N1C[C@H](C)[C@@H](CN(C)S(=O)(=O)c2ccccc2)OCCCC[C@H](C)Oc2ccc(NC(=O)Nc3ccc4c(c3)OCO4)cc2C1=O
[26]
  AC50: 2.35 µM (active)

## COc1ccc2c3c([nH]c2c1)[C@H](CO)N(C(=O)CN(C)C)CC31CCN(CC2CCCCC2)CC1
[20]
  AC50: > 39 µM (inactive)
[21]
  AC50: 0.644 µM (active)
[22]
  AC50: 0.433 µM (active)
[23]
  AC50: 1.12 µM (active)
[24]
  AC50: 19.1 µM (active)
[25]
  AC50: 0.0468 µM (active)

## O=C(O)CCCCC1CCSS1 (stereo not drawn) [LIPOIC ACID, ALPHA]
[27]
  IC50: 16.6 µM (active)
[28]
  IC50: 4.74 µM (active)
[29]
  IC50: 0.62 µM (active)
[30]
  IC50: 3.91 µM (active)

Reference: ChEMBL document CHEMBL1201862, “PubChem BioAssay data set” (2004)
